What was measured:
Experiment in all cases: modified ELISA on progesterone-coated plate, Scatchard plot
[1] = biological target: T1, rScyreprocin/rSCY2 mixture; assay type: binding, Scylla paramamosain; details: protein mixture 0-24 uM on plate coated with 3 ug progesterone; antibody detection; both proteins present
T1 construct: gene scyreprocin; complex not isolated, stoichiometry unknown

rScyreprocin = biological target: T2, rScyreprocin (Scylla paramamosain, UniProt A0A7D0GB18); assay type: binding
T2 construct: recombinant His-tagged scyreprocin, purified
T2 sequence (A0A7D0GB18 1-84): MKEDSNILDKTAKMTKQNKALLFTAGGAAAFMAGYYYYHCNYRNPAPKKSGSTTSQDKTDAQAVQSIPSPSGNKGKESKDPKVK

rSCY2 = biological target: T3, rSCY2 (Scylla paramamosain, UniProt A0AAW0UAN3); assay type: binding; details: protein 0-24 uM on plate coated with 3 ug progesterone; antibody detection; rSCY2 alone
T3 construct: gene SCY2; recombinant His-tagged SCY2, purified
T3 sequence (A0AAW0UAN3 25-124 limits assumed): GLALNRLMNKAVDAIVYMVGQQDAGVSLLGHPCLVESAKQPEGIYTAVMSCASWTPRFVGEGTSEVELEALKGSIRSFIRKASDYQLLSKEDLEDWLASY

SMILES: CC(=O)[C@H]1CC[C@H]2[C@@H]3CCC4=CC(=O)CC[C@]4(C)[C@H]3CC[C@]12C [progesterone]
- Kd [1]: 72.2 nM
- Kd (rScyreprocin): 259 nM
- Kd (rSCY2): 143 nM

From paper PMC8952799, “Two Male-Specific Antimicrobial Peptides SCY2 and Scyreprocin as Crucial Molecules Participated in the Sperm Acrosome Reaction of Mud Crab Scylla paramamosain” (International Journal of Molecular Sciences, 2022)
